Reference: patent US20220194960A1, “WEE1 INHIBITOR AND PREPARATION AND USE THEREOF” (SHOUYAO HOLDINGS (BEIJING) CO., LTD., priority 2019, published 2022)

What was measured:
WEE1 kinase = target: T1, WEE1 kinase (Homo sapiens, UniProt P30291); experiment: WEE1 kinase binding assay (LanthaScreen EU); conditions: WEE1 kinase 20 nM, Kinase Tracer 178 100 nM, 23° C. for 60 min, read-out: WEEI (IC50)
T1 construct: purchased Carna bioscience
Description: 1. Assay for WEE1 Kinase Inhibitory Activity (IC50) on Compounds
The WEE1 kinase binding assay was established and optimized with LanthaScreen EU for the determination of the activity of compounds. 10 mM compounds were subjected to ten-fold gradient dilution in 100% DMSO (6 concentrations in total), 5 μL of diluent from each concentration was added to 45 μL of reaction buffer (50 mM HEPES (4-hydroxyethylpiperazine ethanesulfonic acid), pH 7.5, 10 mM MgCl2 (magnesium chloride), 1 mM EGTA (ethylene glycol diethyl ether diamine tetraacetic acid), 0.01% Brij-35 (polyoxyethylene lauryl ether)) for blending. On this basis, 2 μL diluent from each concentration was added to 48 μL of reaction buffer for blending as a 4*compound (final concentrations of 1000, 100, 10, 1, 0.1, 0 nM) for later use. Reaction buffer was used to formulate 4*WEE1 kinase (purchased from Carna bioscience, a final concentration of 20 nM), 4*LanthaScreen EU-anti-GST Antibody (purchased from Invitrogen, PV5594, a fuel concentration of 2 nM), and 4*Kinase Tracer 178 (purchased from Invitrogen, PV5593, a final concentration of 100 nM). 2.5 μL of 4*compound was added to a 384-well plate (OptiPlate-384, purchased from PerkinElmer), followed by adding 2.5 μL of 4*WEE1 kinase, standing for 5 min at room temperature. Then 2.5 μL of 4*LanthaScreen EU-anti-GST Antibody was added followed by 2.5 μL of 4*Kinase Tracer 178. The reaction was started by centrifugation (a total reaction volume of 10 μL). The 384-well plate was wrapped with tin foil paper and placed in an incubator at 23° C. for 60 min. Fluorescence values (excitation at 320 nm, detecting emitted light at 665 nm and 615 nm, and a ratio of the two as enzyme activity) were read on Envision (purchased from PerkinElmer). The enzyme activity of each compound was measured at 6 concentrations, and the IC50 value of the compound was calculated using GraFit6.0 software (Erithacus Software).
The aforementioned “*” refers to multiplying, representing multiples.

[1] = system: Human non-small cell lung cancer cells NCI-H1299; experiment: NCI-H1299 cell proliferation inhibition (CellTiter-Glo); format: cell-based; conditions: cultured 3 days, table head NCI-H1975, method NCI-H1299
Description: 2. Determination of Cell Proliferation Activity of Compounds:
NCI-H1299 cell proliferation inhibition screening method was established using CellTiter-fib detection reagent from Promega.
Human non-small cell lung cancer cells NCI-H1299 were cultured in 25 cm^2 or 75 cm^2 plastic tissue culture flasks (Corning) filled with DMEM (Gibco) medium supplemented with 10% fetal bovine serum (Hyclone) under 37° C., 95% air, and 5% CO2, and subcultured 2-3 times a week.
Cells were seeded at 1000 cells/well in a 96-well cell culture plate (Corning), 195 μL/well, and cultured under 37° C., 95% air, and 5% CO2. The next day test compound was added: 10 mM compounds (dissolved in DMSO) were subjected to 3-fold gradient dilution in DMSO, 2 μL of diluent from each concentration was added to 48 μL of serum-fret medium, and finally 5 μL of the diluted compound was added to the plate seeded with cells. The final concentration of DMSO in the cell culture was 0.1% and the foul concentration of the test compound was 0.3 nM-10 μM. The cells were cultured at 37° C. for 3 days.

T1 sequence (P30291 whole entry): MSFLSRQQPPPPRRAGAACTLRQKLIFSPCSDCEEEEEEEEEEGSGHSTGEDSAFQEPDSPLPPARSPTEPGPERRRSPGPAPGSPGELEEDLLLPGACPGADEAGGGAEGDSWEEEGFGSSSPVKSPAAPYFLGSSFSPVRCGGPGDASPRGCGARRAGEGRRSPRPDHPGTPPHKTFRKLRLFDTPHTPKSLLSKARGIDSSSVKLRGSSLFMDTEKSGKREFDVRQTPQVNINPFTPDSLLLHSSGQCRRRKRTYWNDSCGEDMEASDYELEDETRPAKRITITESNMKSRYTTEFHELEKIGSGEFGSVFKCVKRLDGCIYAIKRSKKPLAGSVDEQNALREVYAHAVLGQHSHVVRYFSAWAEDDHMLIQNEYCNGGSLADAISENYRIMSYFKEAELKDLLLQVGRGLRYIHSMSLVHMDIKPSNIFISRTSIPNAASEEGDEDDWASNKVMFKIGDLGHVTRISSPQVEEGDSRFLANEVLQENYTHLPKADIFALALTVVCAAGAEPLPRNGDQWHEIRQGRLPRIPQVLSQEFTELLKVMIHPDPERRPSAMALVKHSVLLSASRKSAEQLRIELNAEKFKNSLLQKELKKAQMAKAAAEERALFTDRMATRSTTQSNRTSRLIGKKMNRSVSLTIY

Row | Compound | IC50 (WEE1 kinase) | IC50 [1] | IC50 ([1]; Homo sapiens, 72 h)
1 | CN1CCN(c2ccc(Nc3ncc4c(F)c(C5CC5)n(-c5cccc(N=S(C)(C)=O)n5)c4n3)cn2)CC1 [Example 37, ((6-(6-cyclopropyl-5-fluoro-2-((6-(4-methylpiperazin-1-yl)pyridin-3-yl)amino)-7H-pyrrolo[2,3-d]pyrimidin-7-yl)pyridin-2-yl)imino)dimethyl-λ^6-sulfanone] | 1.08 nM |  | 
2 | CN1CCN(C2CCN(c3ccc(Nc4ncc5cc(C6CC6)n(-c6cccc(N=S(C)(C)=O)n6)c5n4)cc3Cl)CC2)CC1 [Example 54] | 1.04 nM |  | 
3 | CS(C)(=O)=Nc1cccc(-n2c(C3CC3)c(F)c3cnc(Nc4ccc(N5C[C@H]6CC[C@@H](C5)N6)cc4)nc32)n1 [Example 80, ((6-(2-((4-((1R,5S)-3,8-diazabicyclo[3.2.1]octan-3-yl)phenyl)amino)-6-cyclopropyl-5-fluoro-7H-pyrrolo[2,3-d]pyrimidin-7-yl)pyridin-2-yl)imino)dimethyl-λ^6-sulfanone] | 1.18 nM |  | 
4 | CC1(O)CN(N2CCN(c3ccc(Nc4ncc5cc(C6CC6)n(-c6cccc(N=S(C)(C)=O)n6)c5n4)cc3)CC2)C1 [Example 98, ((6-(6-cyclopropyl-2-((4-(4-(3-hydroxy-3-methylazetidin-1-yl)piperazin-1-yl)phenyl)-amino)-7H-pyrrolo[2,3-d]pyrimidin-7-yl)pyridin-2-yl)imino)dimethyl-λ^6-sulfanone] | 0.79 nM | 84 nM | 
5 | CC(C)c1cc2cnc(Nc3ccc(N4CCN(C)CC4)cc3)nc2n1-c1cccc(C(C)(C)O)n1 [Example 141, 2-(6-(6-isopropyl-2-((4-(4-methylpiperazin-1-yl)phenyl)amino)-7H-pyrrolo[2,3-d]pyrimidin-7-yl)pyridin-2-yl)propan-2-ol] | 0.84 nM |  | 
6 | CCc1cc2cnc(Nc3ccc(N4CCN(CCN(C)C)CC4)cc3)nc2n1-c1cccc(N=S(C)(C)=O)n1 [Example 155, ((6-(2-((4 (4-(2-(dimethylamino)ethyl)piperazin-1-yl)phenyl)amino)-6-ethyl-7H-pyrrolo[2,3-d]pyrimidin-7-yl)pyridin-2-yl)imino)dimethyl-λ^6-sulfanone] | 1.02 nM |  | 89 nM
7 | CN1[C@@H]2CC[C@H]1CN(c1ccc(Nc3ncc4cc(C5CC5)n(-c5cccc(N=S(C)(C)=O)n5)c4n3)cc1)C2 [Example 81, ((6-(6-cyclopropyl-2-((4-((1R,5S)-8-methyl-3,8-diazabicyclo[3.2.1]octan-3-yl)phenyl)amino)-7H-pyrrolo[2,3-d]pyrimidin-7-yl)pyridin-2-yl)imino)dimethyl-λ^6-sulfanone] | 0.33 nM |  | 38 nM
8 | CCCc1cc2cnc(Nc3ccc(N4CCC(N5CCN(C)CC5)CC4)cc3)nc2n1-c1cccc(N=S(C)(C)=O)n1 [Example 136, dimethyl((6-(2-((4-(4-(4-methylpiperazin-1-yl)piperidin-1-yl)phenyl)amino)-6-propyl-7H-pyrrolo[2,3-d]pyrimidin-7-yl)pyridin-2-yl)imino)-λ^6-sulfanone] | 0.9 nM |  | 87 nM
9 | CCCc1cc2cnc(Nc3ccc(N4CCN(C)CC4)cc3)nc2n1-c1cccc(N=S(C)(C)=O)n1 [Example 4, ((6-(2-((4 (4-methylpiperazin-1-yl)phenyl)amino)-6-propyl-7H-pyrrolo[2,3-d]pyrimidin-7-yl)pyridin-2-yl)imino)dimethyl-λ^6-sulfanone] | 0.76 nM |  | 33 nM
10 | CC(C)c1cc2cnc(Nc3ccc(N4CCN(C)CC4)cc3)nc2n1-c1cccc(N=S(C)(C)=O)n1 [Example 6, ((6-(6-isopropyl-2-((4 (4-methylpiperazin-1-yl)phenyl)amino)-7H-pyrrolo[2,3-d]pyrimidin-7-yl)pyridin-2-yl)imino)dimethyl-λ^6-sulfanone] | 0.96 nM |  | 
11 | CN1CCN(c2ccc(Nc3ncc4cc(C5CC5)n(-c5cccc(C(C)(C)O)n5)c4n3)cc2)CC1 [Example 55, 2-(6-(2-((4-(4-methylpiperazin-1-yl)phenyl)amino)-6-cyclopropyl-7H-pyrrolo[2,3-d]pyrimidin-7-yl)pyridin-2-yl)propan-2-ol] | 0.98 nM |  | 
12 | CCCc1cc2cnc(Nc3ccc(N4CCN(C)CC4)cc3)nc2n1-c1cccc(C(C)(C)O)n1 [Example 2, 2-(6-(2-((4-(4-methylpiperazin-1-yl)phenyl)amino)-6-propyl-7H-pyrrolo[2,3-d]pyrimidin-7-yl)pyridin-2-yl)propan-2-ol] | 0.88 nM |  | 
13 | CCCc1cc2cnc(Nc3ccc(N4CCN(CCN(C)C)CC4)cc3)nc2n1-c1cccc(C(C)(C)O)n1 [Example 109, 2-(6-(6-propyl-2-((4-(4 (2-(dimethylamino)ethyl)piperazin-1-yl)phenyl)amino)-7H-pyrrolo[2,3-d]pyrimidin-7-yl)pyridin-2-yl)propan-2-ol] | 1.12 nM |  | 
14 | CN(C)CCN(C)c1ccc(Nc2ncc3c(F)c(C4CC4)n(-c4cccc(N=S(C)(C)=O)n4)c3n2)cc1 [Example 14, ((6-(5-fluoro-2-((4-((2-(dimethylamino)ethyl)(methyl)amino)phenyl)amino)-6-cyclopropyl-7H-pyrrolo[2,3-d]pyrimidin-7-yl)pyridin-2-yl)imino)dimethyl-λ^6-sulfanone] | 1 nM |  | 
15 | CS(C)(=O)=Nc1cccc(-n2c(C3CC3)c(F)c3cnc(Nc4ccc(C5C[C@H]6CC[C@@H](C5)N6)cc4)nc32)n1 (stereo partly drawn) [Example 63] | 0.85 nM |  | 

Further lines, results first:

Row | IC50 (WEE1 kinase) | IC50 [1] | IC50 ([1]; Homo sapiens, 72 h) | Compound
16 | 0.59 nM |  |  | CCc1cc2cnc(Nc3ccc(N4CCN(C)CC4)cc3)nc2n1-c1cccc(C(C)(C)O)n1 [Example 159, 2-(6-(6-ethyl-2-((4-(4-methylpiperazin-1-yl)phenyl)amino)-7H-pyrrolo[2,3-d]pyrimidin-7-yl)pyridin-2-yl)propan-2-ol]
17 | 0.6 nM |  |  | Cc1cc2cnc(Nc3ccc(N4CCN(C)CC4)cc3)nc2n1-c1cccc(C(C)(C)O)n1 [Example 145, 2-(6-(6-methyl-2-((4 (4-methylpiperazin-1-yl)phenyl)amino)-7H-pyrrolo[2,3-d]pyrimidin-7-yl)pyridin-2-yl)propan-2-ol]
18 | 0.6 nM |  | 66 nM | Cc1cc2cnc(Nc3ccc(N4CCN(CCN(C)C)CC4)cc3)nc2n1-c1cccc(N=S(C)(C)=O)n1 [Example 151, ((6-(2-((4-(4-(2-(dimethylamino)ethyl)piperazin-1-yl)phenyl)amino)-6-methyl-7H-pyrrolo[2,3-d]pyrimidin-7-yl)pyridin-2-yl)imino)dimethyl-λ^6-sulfanone]
19 | 0.57 nM |  | 43 nM | CCCc1c(F)c2cnc(Nc3ccc(N4CCN(C)CC4)cc3)nc2n1-c1cccc(N=S(C)(C)=O)n1 [Example 1, ((6-(5-fluoro-2-((4-(4-methylpiperazin-1-yl)phenyl)amino)-6-propyl-7H-pyrrolo[2,3-d]pyrimidin-7-yl)pyridin-2-yl)imino)dimethyl-λ^6-sulfanone]
20 | 0.69 nM | 64 nM |  | Cc1cc2cnc(Nc3ccc(N4CCC5(CCN(C)CC5)CC4)cc3)nc2n1-c1cccc(N=S(C)(C)=O)n1 [Example 139, ((6-(6-methyl-2-((4-(9-methyl-3,9-diazaspiro[5.5]undecan-3-yl)phenyl)amino)-7H-pyrrolo[2,3-d]pyrimidin-7-yl)pyridin-2-yl)imino)dimethyl-λ^6-sulfanone]
21 | 0.61 nM |  |  | CS(C)(=O)=Nc1cccc(-n2c(C3CC3)c(F)c3cnc(Nc4ccc(N5CCC(N6CCOCC6)CC5)cc4)nc32)n1 [Example 35, ((6-(5-fluoro-2-((4-(4-(morpholine 4-yl)piperidin-1-yl)phenyl)amino)-6-cyclopropyl-7H-pyrrolo[2,3-d]pyrimidin-7-yl)pyridin-2-yl)imino)dimethyl-λ^6-sulfanone]
22 | 0.3 nM |  |  | COc1cc(Nc2ncc3cc(C4CC4)n(-c4cccc(N=S(C)(C)=O)n4)c3n2)ccc1N1CCN(C)CC1 [Example 38, ((6-(2-(((3-methoxy-4-(4-methylpiperazin-1-yl)phenyl))amino)-6-cyclopropyl-7H-pyrrolo[2,3-d]pyrimidin-7-yl)pyridin-2-yl)imino)dimethyl-λ^6-sulfanone]
